Measurements as given in US12421238B2, “Selective dihydropyrrolopyrimidine JAK2 inhibitors” (CHENGDU JINRUI FOUNDATION BIOTECH CO., LTD., priority 2019, dated 2025).

Experiments:
JAK3 = molecular target: T1, JAK3 (Homo sapiens, UniProt P52333); test: Kinase activity test on JAK3 (Caliper EZ Reader conversion rate)
T1 sequence (P52333 1-1124): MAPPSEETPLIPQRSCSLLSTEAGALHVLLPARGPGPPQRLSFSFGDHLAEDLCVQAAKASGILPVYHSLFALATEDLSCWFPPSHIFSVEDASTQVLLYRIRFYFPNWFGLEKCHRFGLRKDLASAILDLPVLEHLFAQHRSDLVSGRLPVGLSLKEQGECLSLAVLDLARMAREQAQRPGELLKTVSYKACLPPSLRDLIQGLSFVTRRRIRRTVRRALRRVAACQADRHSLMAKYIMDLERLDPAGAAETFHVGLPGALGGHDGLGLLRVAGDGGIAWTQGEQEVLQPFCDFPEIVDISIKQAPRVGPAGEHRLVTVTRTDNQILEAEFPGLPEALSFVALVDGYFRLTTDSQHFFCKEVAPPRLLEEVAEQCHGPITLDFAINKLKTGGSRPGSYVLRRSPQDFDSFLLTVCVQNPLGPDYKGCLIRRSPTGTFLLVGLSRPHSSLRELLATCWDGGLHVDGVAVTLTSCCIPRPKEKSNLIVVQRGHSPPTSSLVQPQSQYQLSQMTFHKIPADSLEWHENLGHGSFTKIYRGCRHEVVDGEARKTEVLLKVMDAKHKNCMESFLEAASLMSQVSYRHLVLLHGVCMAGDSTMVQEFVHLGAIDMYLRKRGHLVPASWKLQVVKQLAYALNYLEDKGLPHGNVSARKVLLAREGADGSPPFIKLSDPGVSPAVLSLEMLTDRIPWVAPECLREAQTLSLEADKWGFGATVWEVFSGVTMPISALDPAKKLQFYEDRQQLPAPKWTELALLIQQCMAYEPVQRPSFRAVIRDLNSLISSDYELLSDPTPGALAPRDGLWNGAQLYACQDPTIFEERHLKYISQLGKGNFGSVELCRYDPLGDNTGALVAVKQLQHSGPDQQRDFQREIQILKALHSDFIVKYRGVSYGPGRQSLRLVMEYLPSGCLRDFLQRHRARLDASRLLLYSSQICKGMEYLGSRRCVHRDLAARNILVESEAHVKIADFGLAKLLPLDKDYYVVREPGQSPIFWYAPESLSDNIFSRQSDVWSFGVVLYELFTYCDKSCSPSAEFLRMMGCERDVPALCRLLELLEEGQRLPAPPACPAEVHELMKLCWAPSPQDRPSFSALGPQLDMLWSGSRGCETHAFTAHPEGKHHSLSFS

JAK1 = JAK1 (Homo sapiens, UniProt P23458); test: Kinase activity test on JAK1 (Caliper EZ Reader conversion rate)
HEL92.1.7 = HEL92.1.7 cell proliferation experiment (Cell Titer-Glo); type: cell-based; details: Homo sapiens, HEL 92.1.7; HEL92.1.7 cells, 72 hours
TF-1 = TF-1 cell proliferation experiment (CellTiter Glo); type: cell-based; details: Homo sapiens; TF-1 cells, 72 hours; read-out: TF-1 (μM), proliferation inhibition
JAK2 = JAK2 (Homo sapiens, UniProt O60674); test: Kinase activity test on JAK2 (Caliper EZ Reader conversion rate); details: for JAK1/JAK2 / JAK3/JAK2: ratio of IC50 values; for JAK1/JAK2: selectivity for JAK2 over JAK1; for JAK3/JAK2: selectivity for JAK2 over JAK3
[1] = Acute toxicity test, single oral administration to ICR mice (MTD); type: in vivo; details: ICR, mouse, in vivo, po, read-out: MTD (maximum tolerated dose)
ICR mice = test: as above; type: in vivo
[2] = Pharmacokinetic test in SD rats, intragastric administration; type: in vivo; details: rat, po, single intragastric administration, 25 mg/kg, plasma; for Cmax: read-out: Blood concentration Cmax; for AUC(0-t): read-out: Curve area AUClast; for half-life: read-out: Half life t1/2 (converted); for Tmax: read-out: Time to peak Tmax
Procedure: SD rats were used as the test animals.
Standard curve and preparation and processing of quality control samples:
Stock solution was diluted with 50% acetonitrile/water solution to obtain standard working solutions of 0.04, 0.10, 0.20, 0.40, 1.00, 2.00, 4.00 μg/mL, and quality control working solutions of 0.10, 1.00, 3.00 μg/mL. 2.50 μL of standard curve working solutions and quality control working solutions were added to 47.5 μL of blank rat plasma, respectively, to obtain standard curve solutions having analyte concentrations of 2.00, 5.00, 10.00, 20.00, 50.00, 100.00, 200.00 ng/mL and quality control samples having concentrations of 5.00, 50.00, and 150.00 ng/mL. 200 μL of acetonitrile (containing 5 ng/mL of the internal standard loratadine) was added. After vortexing for 3 minutes, the solutions were centrifuged at 15000 rpm at 4° C. for 15 minutes. 100 μL of the supernatant was taken for LC-MS/MS analysis. WinNonlin® 8.0 was used to calculate the experimental results.

JAK2, sequence (O60674 whole entry): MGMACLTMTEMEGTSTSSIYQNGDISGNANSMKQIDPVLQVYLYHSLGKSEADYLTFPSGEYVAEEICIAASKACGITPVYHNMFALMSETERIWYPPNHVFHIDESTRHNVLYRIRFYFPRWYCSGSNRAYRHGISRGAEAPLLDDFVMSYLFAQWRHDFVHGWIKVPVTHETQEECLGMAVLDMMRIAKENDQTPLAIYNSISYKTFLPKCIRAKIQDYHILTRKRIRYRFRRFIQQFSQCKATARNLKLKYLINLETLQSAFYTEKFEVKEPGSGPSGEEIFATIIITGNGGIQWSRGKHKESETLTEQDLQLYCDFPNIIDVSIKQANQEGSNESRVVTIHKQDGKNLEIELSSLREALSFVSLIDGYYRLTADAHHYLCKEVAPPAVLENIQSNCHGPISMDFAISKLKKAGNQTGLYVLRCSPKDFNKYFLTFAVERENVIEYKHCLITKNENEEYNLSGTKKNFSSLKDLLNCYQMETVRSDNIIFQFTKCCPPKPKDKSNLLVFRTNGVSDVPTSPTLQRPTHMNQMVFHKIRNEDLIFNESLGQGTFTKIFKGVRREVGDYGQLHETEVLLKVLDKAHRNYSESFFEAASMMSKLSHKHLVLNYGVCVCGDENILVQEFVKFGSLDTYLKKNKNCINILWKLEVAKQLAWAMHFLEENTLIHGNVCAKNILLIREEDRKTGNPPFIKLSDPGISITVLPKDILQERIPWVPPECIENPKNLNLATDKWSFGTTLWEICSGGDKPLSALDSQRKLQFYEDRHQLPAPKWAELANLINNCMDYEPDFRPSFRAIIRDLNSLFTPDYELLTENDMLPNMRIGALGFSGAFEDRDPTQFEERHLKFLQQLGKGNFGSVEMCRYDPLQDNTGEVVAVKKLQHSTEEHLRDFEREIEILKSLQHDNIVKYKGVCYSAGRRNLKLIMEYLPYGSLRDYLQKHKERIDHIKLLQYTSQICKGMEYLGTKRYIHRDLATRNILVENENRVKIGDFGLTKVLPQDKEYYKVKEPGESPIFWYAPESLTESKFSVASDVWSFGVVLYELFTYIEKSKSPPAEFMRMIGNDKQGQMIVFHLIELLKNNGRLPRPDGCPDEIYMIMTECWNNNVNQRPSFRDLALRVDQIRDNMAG
JAK1, sequence (P23458 whole entry): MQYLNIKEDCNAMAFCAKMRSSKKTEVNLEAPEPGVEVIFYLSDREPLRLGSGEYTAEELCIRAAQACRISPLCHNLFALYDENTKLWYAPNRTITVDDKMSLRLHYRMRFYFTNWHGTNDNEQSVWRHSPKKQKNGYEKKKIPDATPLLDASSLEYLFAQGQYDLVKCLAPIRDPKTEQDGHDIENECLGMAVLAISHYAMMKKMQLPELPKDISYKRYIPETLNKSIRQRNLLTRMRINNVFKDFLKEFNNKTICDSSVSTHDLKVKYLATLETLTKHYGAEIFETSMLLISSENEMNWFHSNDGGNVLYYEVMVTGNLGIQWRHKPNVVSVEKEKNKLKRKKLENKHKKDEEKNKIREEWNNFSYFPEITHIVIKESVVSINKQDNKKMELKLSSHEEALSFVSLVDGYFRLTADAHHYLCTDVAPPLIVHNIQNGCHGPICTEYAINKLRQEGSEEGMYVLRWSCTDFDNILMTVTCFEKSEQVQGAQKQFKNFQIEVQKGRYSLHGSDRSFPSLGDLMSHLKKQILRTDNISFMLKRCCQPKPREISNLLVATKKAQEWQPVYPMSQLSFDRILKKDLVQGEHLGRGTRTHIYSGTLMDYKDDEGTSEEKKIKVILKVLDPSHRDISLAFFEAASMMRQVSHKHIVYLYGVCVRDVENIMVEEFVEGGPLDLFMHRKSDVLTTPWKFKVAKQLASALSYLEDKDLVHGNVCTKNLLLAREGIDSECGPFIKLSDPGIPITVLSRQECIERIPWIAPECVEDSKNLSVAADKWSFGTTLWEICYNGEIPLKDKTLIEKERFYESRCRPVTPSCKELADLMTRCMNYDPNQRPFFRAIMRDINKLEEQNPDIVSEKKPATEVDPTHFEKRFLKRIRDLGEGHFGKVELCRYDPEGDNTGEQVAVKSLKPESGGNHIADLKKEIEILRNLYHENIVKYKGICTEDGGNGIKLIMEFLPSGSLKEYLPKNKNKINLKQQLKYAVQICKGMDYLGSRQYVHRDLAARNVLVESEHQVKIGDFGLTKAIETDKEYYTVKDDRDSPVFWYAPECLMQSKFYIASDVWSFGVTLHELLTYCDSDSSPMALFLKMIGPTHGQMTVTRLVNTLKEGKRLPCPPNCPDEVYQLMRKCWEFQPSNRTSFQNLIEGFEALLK

CN1CCN(CCOc2ccc(Nc3ncc4c(n3)N(c3cccc(S(=O)(=O)NC(C)(C)C)c3)CC4)cc2)CC1 [Compound I-4]
IC50 (JAK3): 1.02 µM
IC50 (JAK1): 0.105 µM
IC50 (HEL92.1.7): 0.34 µM
IC50 (TF-1): 0.18 µM
IC50 (JAK2): 0.0012 µM
JAK1/JAK2 (JAK2): 87
JAK3/JAK2 (JAK2): 850
MTD at 6 days [1]: ≥ 1000 mg/kg
MTD (maximum tolerated dose) (ICR mice): 1000 mg/kg
Cmax [2]: 1.1 µg/mL
AUC(0-t) [2]: 0.807 µg·h/mL
half-life [2]: 6.2 h
Tmax [2]: 1.5 h

CN1CCN(c2ccc(Nc3ncc4c(n3)N(c3cccc(S(=O)(=O)NC(C)(C)C)c3)CC4)cc2)CC1 [Compound I-15]
IC50 (JAK3): 0.598 µM
IC50 (JAK1): 0.072 µM
IC50 (HEL92.1.7): 0.17 µM
IC50 (TF-1): 0.12 µM
IC50 (JAK2): 0.00073 µM
JAK1/JAK2 (JAK2): 99
JAK3/JAK2 (JAK2): 819
MTD at 6 days [1]: > 2000 mg/kg
MTD (maximum tolerated dose) (ICR mice): >2000 mg/kg
Cmax [2]: 1.24 µg/mL
AUC(0-t) [2]: 0.934 µg·h/mL
half-life [2]: 6.8 h
Tmax [2]: 1.5 h

CC(C)(C)NS(=O)(=O)c1cccc(N2CCc3cnc(Nc4ccc(OC5CCNCC5)cc4)nc32)c1 [Compound I-19]
IC50 (JAK3): 1.52 µM
IC50 (JAK1): 0.121 µM
IC50 (HEL92.1.7): 0.21 µM
IC50 (TF-1): 0.17 µM
IC50 (JAK2): 0.0009 µM
JAK1/JAK2 (JAK2): 134
JAK3/JAK2 (JAK2): 1689
MTD at 6 days [1]: ≥ 1000 mg/kg
MTD (maximum tolerated dose) (ICR mice): 1500 mg/kg
Cmax [2]: 1.12 µg/mL
AUC(0-t) [2]: 0.935 µg·h/mL
half-life [2]: 6.2 h
Tmax [2]: 1.5 h

CC(C)(C)NS(=O)(=O)c1cccc(N2CCc3cnc(Nc4ccc(C5CCNCC5)cc4)nc32)c1 [Compound I-20]
IC50 (JAK3): 1.43 µM
IC50 (JAK1): 0.13 µM
IC50 (HEL92.1.7): 0.25 µM
IC50 (TF-1): 0.19 µM
IC50 (JAK2): 0.001 µM
JAK1/JAK2 (JAK2): 130
JAK3/JAK2 (JAK2): 1433
MTD at 6 days [1]: > 2000 mg/kg
MTD (maximum tolerated dose) (ICR mice): >2000 mg/kg
Cmax [2]: 1.03 µg/mL
AUC(0-t) [2]: 0.912 µg·h/mL
half-life [2]: 6.3 h
Tmax [2]: 2 h
